The structures appear in SMILES notation.

Take `O=C1N(C(c2ccccc2)c2ccccc2)c2ccccc2C12COc1cc3c(cc12)CCCO3` (stereo not shown) [Example 2.12, 1′-(diphenylmethyl)-6,7-dihydro-5H-spiro[furo[3,2-g]chromene-3,3′-indol]-2′(1′H)-one]: the melting point is 208 to 211 °C.
Under `O=C1N(C(c2ccccc2)c2ccccc2)c2ccccc2C12COc1cc3c(cc12)OCCCO3` (stereo not shown) [Example 2.13, 1′-(diphenylmethyl)-3,4-dihydro-2H-spiro[furo[2,3-h][1,5]benzodioxepine-9,3′-indol]-2′(1′H)-one] stands 165 to 168 °C; under `Cc1ccc(F)c2c1N(C(c1ccccc1)c1ccccc1)C(=O)C21COc2cc3c(cc21)CCO3` (stereo not shown) [Example 2.19, 1′-(diphenylmethyl)-4′-fluoro-7′-methyl-5,6-dihydrospiro[benzo[1,2-b:5,4-b′]difuran-3,3′-indol]-2′(1′H)-one], 81 to 82 °C; under `O=C1N(C(c2ccccc2)c2ccccc2)c2c(F)cccc2C12COc1cc3c(cc12)CCO3` (stereo not shown) [Example 2.20, 1′-(diphenylmethyl)-7′-fluoro-5,6-dihydrospiro[benzo[1,2-b:5,4-b′]difuran-3,3′-indol]-2′(1′H)-one], 183 to 184 °C.
The figure for `O=C1Nc2ccccc2C12COc1ccc3c(c12)OCCO3` (stereo not shown) [Example 3.43, 2,3-dihydrospiro[furo[3,2-f][1,4]benzodioxine-9,3′-indol]-2′(1′H)-one] is 259 to 261 °C.
`O=C1N(Cc2ccc(Br)cc2)c2ccccc2C12COc1cc3c(cc12)OCO3` (stereo not shown) [Example 4.1, 1′-(4-bromobenzyl)spiro[furo[2,3-f][1,3]benzodioxole-7,3′-indol]-2′(1′H)-one] displayed a melting point of 148 to 150 °C.
The figure for `C[n+]1c(Cl)c[nH]c1CN1C(=O)C2(COc3cc4c(cc32)OCCO4)c2ccccc21` (stereo not shown) [Example 4.39, 1′-[(5-chloro-1-methyl-1H-imidazol-2-yl)methyl]-2,3-dihydrospiro[furo[2,3-g][1,4]benzodioxine-8,3′-indol]-2′(1′H)-one] is 91 to 95 °C.
The figure for `Cc1ccc2c(c1)C1(COc3cc4c(cc31)OCCO4)C(=O)N2Cc1ncccc1C(F)(F)F` (stereo not shown) [Example 4.115, 5′-methyl-1′-{[3-(trifluoromethyl)pyridin-2-yl]methyl}-2,3-dihydrospiro[furo[2,3-g][1,4]benzodioxine-8,3′-indol]-2′(1′H)-one] is 137 to 139 °C; for `N#CCN1C(=O)C2(COc3cc4c(cc32)OCCO4)c2ccccc21` (stereo not shown) [Example 5.24, (2′-oxo-2,3-dihydrospiro[furo[2,3-g][1,4]benzodioxine-8,3′-indol]-1′(2′H)-yl)acetonitrile] it is 161 to 162 °C.
As for `COc1ccc(CN2C(=O)C3(COc4cc5c(cc43)OCO5)c3ccccc32)cc1` (stereo not shown) [Example 7, 1′-(4-methoxybenzyl)spiro[furo[2,3-f][1,3]benzodioxole-7,3′-indol]-2′(1′H)-one], the melting point is 147 to 148 °C.
In turn, `CCCCCN1C(=O)[C@@]2(COc3cc4c(cc32)OCCO4)c2ccccc21` [Example 7.3, (S)-1-pentyl-2,3-dihydrospiro[furo[2,3-g][1,4]benzodioxine-8,3′-indol]-2′(1′H)-one] registered a melting point of 111 to 113 °C.
The figure for `O=C1N(C[C@@H]2CCCN2)c2ccccc2C12COc1cc3c(cc12)CCO3` (stereo partly drawn) [Example 11.11, 1′-[(2S)-pyrrolidin-2-ylmethyl]-5,6-dihydrospiro[benzo[1,2-b:5,4-b′]difuran-3,3′-indol]-2′(1′H)-one] is 83 to 86 °C; for `CC(C)NC(=O)N1CCC(CN2C(=O)C3(COc4cc5c(cc43)CCO5)c3ccccc32)C1` (stereo not shown) [Example 11.62, N-(1-methylethyl)-3-[(2′-oxo-5,6-dihydrospiro[benzo[1,2-b:5,4-b′]difuran-3,3′-indol]-1′(2′H)-yl)methyl]pyrrolidine-1-carboxamide] it is 107 to 115 °C.

These data come from patent publication US8263606B2 (Xenon Pharmaceuticals Inc., priority 2008, dated 2012).
